Results: patent publication US9567319B2, “Compound having higher inhibitory activity on protein kinase G and preparation method thereof” (Jenkem Technology Co., Ltd., (Tianjin), priority 2014, dated 2017)
“And” between values parts separate entries of the source, which are not always exact repeats. Equal values may be shown once. “Also recorded” adds a separate entry of the source.

Legend:
[1] = test system: hyperalgesia induced by Freund's complete adjuvant (CFA) in rats; assay: Von Frey filament test, CFA induced hyperalgesia in rats; assay type: in vivo, SD rats; settings: for Von Frey Filament Test Values (Mean ± SD), Baseline: pretreatment, n=8; for Von Frey Filament Test Values (Mean ± SD), 15 min: 15 min post treatment; for Von Frey Filament Test Values (Mean ± SD), 2 h: 2 h post treatment; for Von Frey Filament Test Values (Mean ± SD), 5 h: 5 h post treatment; for Von Frey Values of Individual Animal, Day 14, 15 min / Von Frey Values of Individual Animal, Day 14, 2 h / Von Frey Values of Individual Animal, Day 14, 5 h: high dose i.v. (46 and JK-02A 40 mg/kg, JK-02H 20 mg/kg); for Von Frey Values of Individual Animal, Day 14, 15 min / Von Frey Values of Individual Animal, Day 14, 2 h / Von Frey Values of Individual Animal, Day 14, 5 h / Von Frey Values of Individual Animal, Day 7, 15 min / Von Frey Values of Individual Animal, Day 7, 2 h: two repeated stimuli; for Von Frey Values of Individual Animal, Day 7, 15 min / Von Frey Values of Individual Animal, Day 7, 2 h: low dose i.v. (46 and JK-02A 10 mg/kg, JK-02H 5 mg/kg); for First Baseline, Von Frey, individual animal: pretreatment day 7, two repeated stimuli per animal; for Second Baseline, Von Frey, individual animal: pretreatment day 14 after washing-out, two repeated stimuli per animal
Method: Compounds 46 and JK-02A were prepared according to the disclosure of US patent application No. US2008/0176920, and compound JK-02H was prepared according to Example 1. A repeat efficacy study was carried out on the same batch of animals with a single-dose treatment followed by a washing-out period. The 14 days in life studies included two stages: a single low dose treatment assessment on the 7th day and then a single high dose treatment test on the 14th day after CFA injection. On the 7th day after CFA injection, the rats were randomly assigned to respective groups using a computer generated randomization procedure based on the body weight and the baseline values of Von Frey and weight bearing test. Animals received corresponding single dose treatments (vehicle and 3 test articles) on the 7th and 14th days after CFA injection, respectively, and the effect of the test compounds were evaluated. Hyperalgesia of all the study animals was assessed following a single low dose treatment with the test articles on day 7, while a single high dose effect of the test article was evaluated on day 14. The mechanical hyperalgesia and weight bearing were measured on day 7 and day 14 after CFA injection, followed by administration of control or test articles. Von Frey filaments and weight bearing were measured on all the study animals at three time points on day 7, and four time points on day 14. An extra time point assessment was conducted on day 14, considering the strong analgesic effect of the test articles at a higher dose noticed during the test at the 3th time point. Mechanical hyperalgesia of the left hind paw was measured before and during the course of study in all animal groups by determining withdrawal thresholds to Von Frey filament (Bioseb, France). Increasing tensile force perpendicular to the plantar surface of the paw was applied to the filaments. The threshold for paw withdrawal was calculated by taking the average of 2-3 repeated stimuli (unit in “g”). On day 7, Von Frey Filament measurements were conducted three times, at the time points of pretreatment, 15 min and 2 hours post treatment. Following a one-week washing out period, on day 14 after CFA injection, Von Frey Filament tests were performed again four times post a single high dose administration. Rats treated with vehicle or high dose test articles were measured at the time points of pretreatment, 15 min, 2 and 5 hours post treatment. All the results were expressed as mean±SD. One-way analysis of variance (ANOVA) followed by a multiple comparison test were applied among the groups, p<0.05 accepted as significant.

[2] = test system: hyperalgesia induced by Freund's complete adjuvant (CFA) in rats; assay: Therapeutic effect on CFA induced hyperalgesia in rats (overall conclusion of Von Frey and weight bearing tests); assay type: in vivo, SD rats; settings: for anti-hyperalgesia effect at high dose: high dose i.v.: JK-02H 20 mg/kg, 46 and JK-02A 40 mg/kg; for anti-hyperalgesia effect at high dose / anti-hyperalgesia effect at low dose: compared with vehicle; for anti-hyperalgesia effect at low dose: low dose i.v.: JK-02H 5 mg/kg, 46 and JK-02A 10 mg/kg
Method: . A repeat efficacy study was carried out on the same batch of animals with a single-dose treatment followed by a washing-out period. The 14 days in life studies included two stages: a single low dose treatment assessment on the 7th day and then a single high dose treatment test on the 14th day after CFA injection.
On the 7th day after CFA injection, the rats were randomly assigned to respective groups using a computer generated randomization procedure based on the body weight and the baseline values of Von Frey and weight bearing test. Animals received corresponding single dose treatments (vehicle and 3 test articles) on the 7th and 14th days after CFA injection, respectively, and the effect of the test compounds were evaluated. Hyperalgesia of all the study animals was assessed following a single low dose treatment with the test articles on day 7, while a single high dose effect of the test article was evaluated on day 14.
The mechanical hyperalgesia and weight bearing were measured on day 7 and day 14 after CFA injection, followed by administration of control or test articles. Von Frey filaments and weight bearing were measured on all the study animals at three time points on day 7, and four time points on day 14. An extra time point assessment was conducted on day 14, considering the strong analgesic effect of the test articles at a higher dose noticed during the test at the 3th time point.
The effects of compounds 46, JK-02A and JK-02H on CFA induced hyperalgesia in rats were assessed with Von Frey and weight bearing tests following single injection.

[3] = day 7 after CFA, low dose groups (46 and JK-02A 10 mg/kg, JK-02H 5 mg/kg)
[4] = day 7 after CFA, single low dose i.v. (46 and JK-02A 10 mg/kg, JK-02H 5 mg/kg)
[5] = day 14 after CFA, high dose groups (46 and JK-02A 40 mg/kg, JK-02H 20 mg/kg)
[6] = day 14 after CFA, single high dose i.v. (46 and JK-02A 40 mg/kg, JK-02H 20 mg/kg)

SMILES | Von Frey Filament Test Values (Mean ± SD), Baseline [1, 3] [g] | Von Frey Filament Test Values (Mean ± SD), 15 min [1, 4] [g] | Von Frey Filament Test Values (Mean ± SD), 2 h [1, 4] [g] | Von Frey Filament Test Values (Mean ± SD), Baseline [1, 5] [g] | Von Frey Filament Test Values (Mean ± SD), 15 min [1, 6] [g] | Von Frey Filament Test Values (Mean ± SD), 2 h [1, 6] [g] | Von Frey Filament Test Values (Mean ± SD), 5 h [1, 6] [g] | Von Frey Values of Individual Animal, Day 14, 15 min [1] | Von Frey Values of Individual Animal, Day 14, 2 h [1] | Von Frey Values of Individual Animal, Day 14, 5 h [1] | Von Frey Values of Individual Animal, Day 7, 15 min [1] | Von Frey Values of Individual Animal, Day 7, 2 h [1] | First Baseline, Von Frey, individual animal [1] | Second Baseline, Von Frey, individual animal [1] | anti-hyperalgesia effect at high dose [2] | anti-hyperalgesia effect at low dose [2] | other results
CCCOc1ccc(O)c(F)c1C(=O)c1ccc(C(=O)N[C@@H]2CNC[C@H]2NC(=O)c2ccc3cn[nH]c3c2)cc1 [compound 46] | 6.81 ± 0.74 | 7.12 ± 1.20 | 7.69 ± 1.59 | 7.01 ± 0.75 | 8.17 ± 1.50 | 8.04 ± 1.83 | 7.66 ± 1.72 | 7.3 g and 9.0 g and 8.3 g and 7.5 g and 9.6 g (2×) and 10.8 g and 7.0 g and 6.7 g and 8.2 g (2×) and 5.5 g and 5.6 g and 8.0 g and 10.5 g and 8.9 g | 5.8 g and 7.3 g and 8.2 g and 7.0 g and 6.2 g and 7.1 g and 8.9 g (2×) and 7.2 g and 5.9 g (2×) and 8.5 g and 9.7 g and 8.8 g and 11.1 g and 12.1 g | 6.6 g (2×) and 7.5 g (2×) and 7.1 g and 6.1 g and 5.9 g and 6.3 g and 8.8 g and 6.8 g and 5.8 g and 7.0 g and 8.7 g and 9.9 g and 11.7 g and 10.3 g | 7.6 g (2×) and 7.5 g (2×) and 6.8 g and 6.6 g and 5.5 g and 8.2 g and 5.9 g and 7.9 g and 4.6 g and 5.3 g and 9.0 g and 8.9 g and 7.8 g and 7.2 g | 9.3 g (2×) and 8.8 g and 9.4 g (2×) and 8.6 g and 6.5 g (3×) and 5.8 g and 5.9 g (2×) and 7.4 g and 5.5 g and 8.4 g and 9.8 g | 7.4 g and 5.4 g and 6.2 g and 6.1 g (2×) and 6.4 g and 6.3 g and 5.5 g and 7.5 g and 7.0 g and 7.3 g and 6.7 g and 7.6 g (2×) and 8.1 g and 7.7 g | 7.6 g (2×) and 7.7 g and 6.4 g and 6.2 g (2×) and 5.5 g and 5.7 g and 7.1 g and 7.9 g and 7.0 g and 7.3 g and 7.2 g (2×) and 8.1 g and 7.5 g | anti-hyperalgesia effect; also recorded: showed anti-hyperalgesia effects | barely showed any anti-hyperalgesia effect; also recorded: not significant | 
Cl.O=C(N[C@@H]1CNC[C@H]1NC(=O)c1ccc2cn[nH]c2c1)c1ccc(C(=O)c2c(OCCOCCO)ccc(F)c2F)cc1 [JK-02H, (3R,4R)-3-{4-[2,3-difluoro-6-(5-hydroxy-3-oxapentan-1-oxy)]benzoyl}benzamido-4-(1H-indazole-6-carboxamido)pyrrolidine hydrochloride] | 6.76 ± 0.73 | 9.85 ± 2.15 | 8.69 ± 1.57 | 6.81 ± 0.70 | 10.87 ± 1.00 | 10.57 ± 1.76 | 9.68 ± 1.63 |  |  |  |  |  |  |  |  |  | Von Frey Values of Individual Animal, Day 14, 15 min ([1]; hydrochloride): 11.6 g and 11.4 g (2×) and 9.4 g (2×) and 10.9 g and 9.7 g and 10.3 g and 10.1 g and 11.1 g and 10.8 g and 10.4 g and 12.0 g and 13.7 g and 11.7 g and 10.0 g; Von Frey Values of Individual Animal, Day 14, 2 h ([1]; hydrochloride): 7.1 g and 8.9 g and 11.3 g and 10.8 g (2×) and 9.2 g and 7.2 g and 12.0 g and 9.8 g and 10.5 g and 10.3 g and 11.4 g and 11.0 g and 12.3 g and 13.0 g and 13.5 g; Von Frey Values of Individual Animal, Day 14, 5 h ([1]; hydrochloride): 7.3 g and 8.9 g and 8.7 g (2×) and 9.5 g and 7.1 g and 7.4 g and 8.5 g and 11.0 g and 9.8 g and 11.3 g and 9.9 g and 11.2 g and 12.6 g and 12.1 g and 10.9 g; Von Frey Values of Individual Animal, Day 7, 15 min ([1]; hydrochloride): 6.5 g and 5.5 g and 11.9 g and 13.8 g and 8.6 g and 8.5 g (2×) and 10.5 g (2×) and 11.3 g (2×) and 8.7 g and 9.3 g and 9.7 g and 11.4 g and 11.7 g; Von Frey Values of Individual Animal, Day 7, 2 h ([1]; hydrochloride): 7.0 g and 6.2 g and 11.4 g and 11.2 g and 8.7 g (2×) and 9.0 g and 7.5 g (3×) and 6.5 g and 8.5 g and 10.8 g (2×) and 8.4 g and 9.4 g; First Baseline, Von Frey, individual animal ([1]; hydrochloride): 4.9 g and 5.8 g (3×) and 6.7 g and 7.7 g and 6.1 g and 7.0 g and 7.1 g and 6.4 g and 7.4 g (2×) and 7.3 g (2×) and 8.0 g and 7.5 g; Second Baseline, Von Frey, individual animal ([1]; hydrochloride): 5.2 g and 5.4 g and 8.4 g and 6.7 g and 6.6 g (2×) and 6.4 g and 7.3 g (2×) and 7.1 g and 6.8 g and 7.6 g and 7.4 g and 6.9 g and 6.2 g and 7.0 g; therapeutic effect when the test time was prolonged to 5 h ([2]; high dose (20 mg/kg), 5 h post treatment): very remarkable therapeutic effect; anti-hyperalgesia effect at high dose ([2]; hydrochloride): excellent anti-hyperalgesia effect; also recorded: significant anti-hyperalgesia effects; anti-hyperalgesia effect at low dose ([2]; hydrochloride): excellent anti-hyperalgesia effect; also recorded: significant anti-hyperalgesia effects
CCCOc1ccc(F)c(F)c1C(=O)c1ccc(C(=O)N[C@@H]2CNC[C@H]2NC(=O)c2ccc3cn[nH]c3c2)cc1 [JK-02A] | 6.89 ± 0.99 | 7.64 ± 1.83 | 7.43 ± 1.62 | 6.73 ± 0.74 | 8.63 ± 1.62 | 8.82 ± 1.20 | 8.45 ± 2.18 | 9.3 g and 8.9 g and 6.5 g and 7.4 g (2×) and 10.9 g and 9.5 g (2×) and 6.1 g and 12.5 g and 10.6 g and 7.6 g and 9.2 g and 8.5 g and 10.7 g and 9.1 g | 8.7 g (2×) and 9.8 g and 9.5 g and 9.3 g (2×) and 9.4 g and 9.1 g and 8.5 g and 9.2 g and 8.2 g and 8.9 g and 9.6 g and 10.6 g and 6.2 g and 5.8 g | 11.9 g and 13.2 g and 6.7 g and 5.2 g and 8.3 g and 9.2 g and 9.7 g and 9.8 g and 8.8 g and 9.9 g and 6.4 g and 5.7 g and 7.3 g and 8.9 g and 7.4 g and 6.8 g | 9.1 g (3×) and 8.8 g and 6.3 g and 5.6 g (2×) and 10.2 g and 8.9 g and 10.0 g and 9.5 g (2×) and 5.7 g and 7.3 g and 6.0 g and 9.4 g | 6.6 g and 5.6 g and 7.0 g (3×) and 8.3 g and 7.4 g and 6.0 g and 8.9 g and 10.5 g and 10.4 g and 6.5 g and 7.1 g and 7.3 g and 5.1 g and 4.9 g | 5.1 g and 5.9 g and 5.8 g and 6.5 g and 6.9 g and 6.2 g and 5.2 g and 6.8 g (2×) and 7.8 g and 7.3 g and 7.6 g (2×) and 7.9 g and 8.2 g and 8.6 g | 7.1 g (2×) and 5.3 g and 5.2 g and 7.4 g and 7.3 g and 6.0 g and 7.6 g and 6.4 g (2×) and 6.6 g and 7.7 g and 7.5 g (2×) and 5.8 g and 6.7 g | showed anti-hyperalgesia effects | not significant | 
